The values that follow are results of earlier work, collected in patent US20240165126A1 (TONIX PHARMACEUTICALS HOLDING CORP., priority 2021, published 2024).

For this data set the following is noted: orally administered; extensive first pass hepatic metabolism; Smith et al. 2012.

As to `C=CCN1CC[C@]23c4c5ccc(O)c4O[C@H]2C(=O)CC[C@@]3(O)[C@H]1C5` [Naloxone], the systemic bioavailability is on record as ≤ 2%.
